# Legend:
# [1] = tested on: A549 human adenocarcinoma cells; assay: Survival (colony forming) assay of tumor cells under aerobic or hypoxic conditions with drug treatment; conditions: for reduction of cell survival in hypoxic cells relative to the cell survival fraction with hypoxia alone: 20 hours of hypoxia (0.02% O2); for aerobic cytotoxicity of the drug by itself: TPA 1 uM, PDA 1 uM, OAG 200 uM, thapsigargin 2 uM, compound 48/80 50 mg/ml, pentoxyfylline 1 mM; for effect on cell survival in normally oxygenated (aerated) cells: aerated A549 cells
# Procedure: A549 human adenocarcinoma cells were maintained in culture with alpha MEM containing 10% fetal calf serum. Cells were plated two days before hypoxia treatment in 60 mm glass (Corning) tissue culture dishes with notched sides at a density of 1×10^6 cells/dish. Hypoxia treatment of cells may be performed in any method known and available to those skilled in the art.
# On the day of the hypoxia treatment, cells were re-fed with fresh media and incubated 4-6 hours before being exposed to hypoxia. The petri dishes were preferably then placed in specially designed aluminum hypoxia chambers that are prewarmed overnight at 37° C. The chambers were sealed and subjected to successive rounds of evacuation followed by flushing with 95% N2 /5% CO2 while slowly being agitated on a reciprocating shaker. The chambers were then placed in a 37° C. incubator and kept on a reciprocating shaker for the duration of the hypoxic treatment.
# Oxygen concentration may be monitored with the use of a Clark-type electrode, such as commercially available from Controls Katharobic, Edmonton, Canada.
# After hypoxic treatment, the seals to the chambers were broken, and the cells were washed with phosphate buffered saline, trypsinized, and then plated into tissue culture dishes to assay for colony forming ability.
# All drugs were made from fresh stocks on the day of the treatment. In the combined drug and hypoxia treatments, the cells were pretreated for one hour with the drug before being exposed to hypoxia and then plated into tissue culture plates. Cells were then treated in accordance with several different methods: 1) exposure of the cells to thapsigargin for one hour prior to and continuous exposure for the duration of the hypoxia, and then plated for survival; 2) one hour exposure to the PKC activator drug in standard air followed by continuous exposure for the duration of hypoxia, and then plated for survival; 3) continuous exposure during hypoxia to TPA followed by immediate plating for survival; 4) 19 hour hypoxia treatment followed by one hour exposure to TPA in air or hypoxia using a Bactron II anaerobic chamber (Sheldon Labs, Cornelius, Oreg.), and then plating for survival; 5) continuous exposure during 19 hours of hypoxia with phospholipase inhibitors (compound 48/80 and pentoxyfylline), exposure to TPA for 1 hour in air, and then plating for survival.
# TPA, PDA, staurosporine, compound 48/80, and pentoxyfylline are commercially available from Sigma Chemicals, St. Louis, Mo. Thapsigargin, herbimycin A, and genistein are commercially available from Gibco/BRL, Gaithersberg, Md.
# After various experimental treatments, cells were plated into Nunc tissue culture plates at the appropriate concentrations in triplicate. The plates are placed in a 37° C. incubator and stained 10 days after the experiment with 1% crystal violet in 10% methanol. Viable colonies are defined as colonies with 50 or more cells.
# [2] = molecular target: protein kinase C (PKC); assay: Protein kinase C (PKC) activation assay; type: biochemical; conditions: approximate
# Procedure: The EC50 is the concentration of compound that produces half-maximal stimulation of protein kinase C activity in a given assay.
# Protein kinase C activation is measured in an assay that measures PKC phosphorylation activity using as substrate for PKC myelin basic protein. […] The reaction was initiated by an appropriate amount of crude cytosol extract. The phosphorylated product from 10 μl of reaction mixture was quantified using phospho-cellulose paper and washing method of Cook, et al. Background ^32 P incorporation in the absence of calcium and phosphatidyl serine/diolein and in the presence of 1 mM EGTA was subtracted from total incorporation in the complete PKC assay reaction mixture to determine the extent of PKC-dependent phosphorylation.
# Suitable for use in this assay as a PKC source is either a crude extract, prepared as below, or, more preferably, purified PKC. Purified PKC is obtained from commercial sources.
# [3] = tested on: PKC-epsilon; assay: Western blot of PKC epsilon levels in hypoxic tumor cells; type: cell-based, human; conditions: for effect on PKC epsilon induction/activation by hypoxia and TPA: alone or in combination, FIG. 9
# Procedure: Western blotting methods, as detailed in Example 2, were used to validate that the treatment method of the invention increases levels of PKC. […] Little accumulation is seen before 9 hours of hypoxic exposure.
# Cells were lysed in a 50 mM phosphate buffer, sonicated with 4.5 second pulses of 75 W with cooling on ice between pulses, and followed by 3 rounds of freezing/thawing. Protein concentrations of each sample may be estimated using the bicinchoninic acid method. 200 μg of protein were loaded per lane. After running for 2 hours at 40 mA in a 7.5% polyacrylamide gel, the gel is transferred onto Hybond ECL, (Amersham, Arlington Heights, Ill.) for 2 hours with the use of a Bio-Rad semi-dry transfer system. After the transfer, the gel may be stained with 0.15% Coomassie blue to ensure uniform transfer. […] Preferably, the membrane is probed using the method described in Kim, et al., which is incorporated herein by reference, and autoradiographed utilizing enhanced chemiluminescence (ECL) according to the manufacturer's protocol (Amersham, Arlington Heights, Ill.).
# [4] = tested on: A549 human adenocarcinoma cells; assay: Pulsed-field gel electrophoresis of DNA degradation in hypoxia-treated cells; type: cell-based; conditions: added to hypoxia treated cells
# Excerpt: The mechanism of cell death by hypoxia appears to be necrosis rather than apoptosis. Using pulsed-field gel electrophoresis, a steady increase in DNA degradation as a function of time under hypoxia may be found. The methods followed those given in Example 2. The pattern of DNA degradation (not shown) is not one that is characteristic of apoptosis. The DNA was not fragmented into distinct nucleosome ladders, which is one of the hallmark characteristics of apoptosis; rather, it separated as a smear which is indicative of death by necrosis.
# Pulsed-field gel electrophoresis may be performed in any manner known and available to those skilled in the art. One preferred method is described in Giaccia, 1992b, which is incorporated herein by reference. Briefly, fresh media was added to all of the treatment groups on the day of the treatment. After treatment, cells were washed with phosphate buffered saline (PBS), trypsinized, and resuspended in 1% agarose/PBS. The cells embedded in agarose were allowed to solidify in glass tubes and then cut into 5 mm plugs. The plugs were lysed in 0.5M EDTA, 1% sarkosyl, and 1 mg/ml proteinase K (Boehringer Mannheim, Indianapolis), and incubated at 50° C. for 16 hours in this lysis buffer.
# After dialyzing the plugs against 25 volumes of 10 mM Tris and 1 mM EDTA for 4 hours, the plugs were then treated with 20 mg/ml RNase A for 3 hours at 37° C. […]
Compound,reduction of cell survival in hypoxic cells relative to the cell survival fraction with hypoxia alone ([1]; FIG. 3),aerobic cytotoxicity of the drug by itself [1],effect on cell survival in normally oxygenated (aerated) cells ([1]; FIG. 3),effect on PKC epsilon induction/activation by hypoxia and TPA [3],also measured
"CCCCCCCCCCCCCC(=O)O[C@@H]1[C@@H](C)[C@@]2(O)[C@@H](C=C(CO)C[C@]3(O)C(=O)C(C)=C[C@@H]23)[C@@H]2C(C)(C)[C@]12OC(C)=O [TPA, 12-O-tetradecanoyl-phorbol-13-acetate]","about 1,000 fold",little or no aerobic cytotoxicity,none of the PKC activators had an appreciable effect on cell survival,–,"selective killing of hypoxic versus aerobic cells ([1]; 1 μM, FIG. 3): selectively killed hypoxic, but not aerobic cells; EC50 [2]: ~1000 nM; increase in PKC levels over that of hypoxia alone ([3]; one hour exposure following 19 hours of hypoxia, FIG. 7B, 60 min): 5 fold; DNA fragmentation over that found with hypoxia treatment alone [4]: does not increase DNA fragmentation"
CC(=O)CCCCn1c(=O)c2c(ncn2C)n(C)c1=O [pentoxyfylline],–,–,–,do not inhibit PKC activation,"protection against TPA mediated hypoxic cell killing (increase in survival) ([1]; inhibitor during 19 hours of hypoxia, then TPA 1 hour, FIG. 8): 100 fold"
"CCCCCCCCCC(=O)O[C@@H]1[C@@H](C)[C@@]2(O)[C@@H](C=C(CO)C[C@@]3(O)C(=O)C(C)=C[C@@H]23)[C@@H]2C(C)(C)[C@]12OC(=O)CCCCCCCCC [PDA, 4α-phorbol-12-13-didecanoate]",–,little or no aerobic cytotoxicity,–,–,"effect on cell survival (control phorbol ester) ([1]; aerobic and hypoxic A549 cells, FIG. 3): indistinguishable from no drug treatment; effect on steady state levels of PKC ([3]; data not shown): has no effect"
C/C=C(/C)C(=O)O[C@H]1C(C)=C2[C@H]([C@@H]1OC(=O)CCCCCCC)[C@@](C)(OC(C)=O)C[C@H](OC(=O)CCC)[C@@]1(O)[C@H]2OC(=O)[C@@]1(C)O [thapsigargin],"about 1,000 fold",little or no aerobic cytotoxicity,none of the PKC activators had an appreciable effect on cell survival,–,"selective killing of hypoxic cells ([1]; 2 μM, FIG. 3): selectively killed hypoxic cells"
"CCCCCCCC/C=C\CCCCCCCC(=O)OCC(CO)OC(C)=O (stereo not shown) [OAG, 2-acetyl-1-oleoylglycerol]",–,little or no aerobic cytotoxicity,none of the PKC activators had an appreciable effect on cell survival,–,–
COC1C=CC=C(C)C(=O)NC2=CC(=O)C=C(C2=O)C(OC)C(C)CC(OC)C(OC)C(C)C=C(C)C1OC(N)=O (stereo not shown) [herbimycin A],–,–,–,has no effect on PKC induction,–
